Test: gradient 5% acetonitrile 3 min, to 50% in 2 min, to 85% in 15 min, held 3 min, 100 µL/min
Details: column: Zorbax Extend-C18 2.1 x 50 mm; eluents: water / acetonitrile, 0.1% formic acid
Summary of the method: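 Over 3 months, pure standards in mixtures of ~100 molecules were run by HPLC coupled to a quadrupole time-of-flight mass spectrometer in positive and negative ionization mode. The column was a Zorbax Extend-C18 (2.1 × 50 mm, 1.8 μm) at 100 μL/min, eluted with water and acetonitrile each holding 0.1% formic acid, with 40 μL dead and 900 μL dwell volumes. Retention time was determined from adduct peaks chosen by software and checked manually.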

RP-LC retention time | Structure (SMILES)
756 s | COCCNC(=O)C1CCCN(c2nn3cc(-c4ccc(F)cc4)nc3s2)C1 (stereo unspecified)
1050 s | CN(C)c1nc2cc(C(=O)NC3CCCC3)sc2n1-c1ccc(F)cc1
1380 s | Cc1c2c(nn1-c1ccc(SCc3ccccc3Cl)nn1)CCC2
828 s | O=C(Nc1ccc2c(c1)OCCO2)C1CCN(C(=O)c2ccc(-c3noc(C4CC4)n3)cc2)CC1
599 s | CC(C)N1CCC(c2nnc3n2CCN(S(=O)(=O)c2ccccc2Cl)C3)C1 (stereo unspecified)
849 s | Cc1noc(/C=C\c2ccc(S(=O)(=O)N3CCN(c4ncccn4)CC3)cc2)c1NC(=O)C1CC1
708 s | CC(C)CNC(=O)c1ccc(-c2nnc3ccc(NC(=O)C4CC4)cn23)cc1
782 s | O=C(CCc1nc2ccccc2n(CC(=O)Nc2ccc3c(c2)OCCO3)c1=O)NCc1ccccc1
713 s | CCCNc1cc(N2CCC(CCC(=O)NCc3ccc(F)c(Cl)c3)CC2)ncn1
579 s | Cn1nc2n(c1=O)CCC(NS(=O)(=O)c1cccnc1)CC2 (stereo unspecified)
985 s | CCOCCCNC(=O)N1CC(Oc2ccc(-c3nc(-c4ccccc4)no3)cc2)C1
1130 s | CC(C)n1cc(C2=CCN(S(=O)(=O)Cc3ccc(Cl)cc3)CC2)c2cccnc21
725 s | CCOc1ccc(C(=O)NC2CCN(c3cc(-c4ccc(OC)cc4)[nH]n3)C2)cc1 (stereo unspecified)
684 s | O=C(CCSc1ccccc1)N1CCN(c2ccc3nnc(C4CC4)n3n2)CC1
955 s | Cc1ccc(S(=O)(=O)N2CCc3c(c(-c4nnc(-c5ccccc5F)o4)nn3C)C2)cc1
945 s | Cc1cccc(N2CCN(c3ncc(C(=O)O)c(C)n3)CC2)c1
662 s | CCC(C)NC(=O)N1CC(n2cc(C(=O)NCC3CC3)nn2)C1 (stereo unspecified)
884 s | Cc1ccc(NC(=O)Cn2nc(N3CCOCC3)c3ccccc3c2=O)c(Br)c1
716 s | COc1ccc(-c2nc3cccnc3n2C2CCN(C(=O)c3ccc4c(c3)OCO4)C2)cc1 (stereo unspecified)
766 s | O=C1COc2ccc(S(=O)(=O)N3CCC(C(=O)N4CCN(c5ccccc5)CC4)CC3)cc2N1
1360 s | CC(C)(C)c1ccc(-c2noc(Cn3c(=O)n(CCc4ccccc4)c(=O)c4sccc43)n2)cc1
946 s | COc1cccc(Cn2nc3ccc(S(=O)(=O)N4CCCCCC4)cn3c2=O)c1

RP-LC retention time | Structure (SMILES)
706 s | CCOC(=O)c1[nH]c(C)c(CCC(=O)N2CCC(C(=O)NCCCOC(C)C)CC2)c1C
830 s | O=C(Cn1ccn2nc(-c3ccccc3)c(CO)c2c1=O)Nc1ccccc1C(F)(F)F
595 s | CCc1noc2nc(CCC(=O)NCCCN3CCN(CC)CC3)nc(N3CCCCC3)c12
880 s | O=C(Nc1cccc(N2CC(C(=O)Nc3ccc(C(F)(F)F)cc3)CC2=O)c1)C1CCC1 (stereo unspecified)
935 s | CCc1ccc(C2=C(C)C(N3CCC(NC(=O)CCC(C)C)CC3)=NS2(=O)=O)cc1
842 s | O=C(Cn1c(=O)oc2ccc(C(=O)N3CCCC3)cc21)N1CCN(c2cccc(Cl)c2)CC1
672 s | O=C(c1cc(-c2ccncc2)n[nH]1)N1CCC(C(=O)N2CCN(c3ccc(Cl)cc3)CC2)CC1
820 s | CCOc1ccccc1C(=O)N1CCN(S(=O)(=O)c2cc3c4c(c2)CCC(=O)N4CCC3)CC1
1090 s | Cc1cccc(-c2noc(Cn3c(=O)n(-c4cccc(C)c4)c(=O)c4sccc43)n2)c1
836 s | Cc1cc(S(=O)(=O)N(C)CC2CCOC2)ccc1F (stereo unspecified)
831 s | O=C(NCc1ccc2c(c1)OCO2)c1nn(-c2ccccc2)c2ccccc2c1=O
1040 s | O=C(COc1ccc(Br)cc1)Nc1cncc(-c2nc3ccccc3o2)c1
727 s | NC(=O)c1ccc2c(c1)S(=O)(=O)c1ccccc1C2=O
911 s | O=C(NC1(c2nc(-c3ccncc3)no2)CCCCC1)c1ccccc1F
915 s | COc1ccc(OC)c(NC(=O)CN2C(=O)C(C)(C)c3cc(C)ccc32)c1
784 s | Cc1ccc(OCC(=O)NCC2(C)CCOCC2)cc1
634 s | COc1ccc(S(=O)(=O)NC2CCN(C(=O)C3CCN(C(C)=O)CC3)CC2)cc1
695 s | O=C(c1ccccc1)N1CCC(n2c(-c3ccoc3)nc3cccnc32)C1 (stereo unspecified)
901 s | Fc1ccc(-c2noc(-c3ccc(NC4CC4)nc3)n2)cc1
678 s | CCc1nc(-c2csc(S(=O)(=O)N3CCCC(C(=O)Nc4cccnc4)C3)c2)no1 (stereo unspecified)
722 s | C=Cc1ccc(CN2CCCN(c3ncccc3-c3nc(CC)no3)CC2)cc1
1310 s | O=C(Nc1cc(F)cc(F)c1)c1c(O)c2cccnc2n(-c2cccc(F)c2)c1=O

RP-LC retention time | Structure (SMILES)
767 s | Cc1ccccc1CNC(=O)c1cc2n(n1)CC(C)(C(=O)NC1CCCC1)N(C)C2=O (stereo unspecified)
671 s | CCCOc1nccnc1N1CCC(NC(=O)Cc2cccnc2)C1 (stereo unspecified)
805 s | O=C(C1CCCN(c2nc3ccccc3n3cccc23)C1)N1CCN(c2ccc(F)cc2)CC1 (stereo unspecified)
787 s | CN(C)C(=O)c1csc(S(=O)(=O)N2CCC(C(=O)NCc3ccc(Cl)cc3)CC2)c1
958 s | CN(C)S(=O)(=O)c1ccc(-c2nnc(C(=O)NCc3cccc(C(F)(F)F)c3)o2)cc1
635 s | O=C(c1cn(-c2cc(N3CCSCC3)ncn2)cn1)N1CCN(C2CCCCC2)CC1
656 s | COc1cccc2c(Nc3ccccc3)cc(C(=O)N3CCSCC3)nc12
568 s | O=C(NCCCn1ccnc1)C(=O)Nc1c2c(nn1-c1cccc(Cl)c1)CSC2
814 s | Cc1ccc(Nc2c(-c3cc(Br)ccc3F)nc3cccc(C)n23)cc1
723 s | COc1ccc(C)cc1NC(=O)Cn1cnc2nc(N3CCC(C(=O)NC4CC4)CC3)sc2c1=O
899 s | COc1ccc(-c2nnc(N3CCC(C(=O)NCc4cc(F)cc(F)c4)CC3)o2)cc1
675 s | CC1CCN(c2cc(-c3nccn3CC(=O)NC3CCCCC3)ccn2)CC1
799 s | Cc1nnc(-c2cn(CC(=O)Nc3ccccc3F)c3ccccc23)o1
689 s | O=C(Cn1ncc2c3ccccc3n(Cc3ccc(F)cc3)c2c1=O)N1CCN(c2ccccn2)CC1
717 s | O=C(O)CCCNS(=O)(=O)c1ccc2ccccc2c1
931 s | CCN1C(=O)c2cccnc2Sc2cc(NC(=O)COc3cccc(C)c3)ccc21
698 s | COC(=O)c1ccc(NC(=O)Cc2csc(Nc3ccc(S(C)(=O)=O)cc3)n2)cc1
826 s | CCS(=O)(=O)c1nc2ccc(NS(=O)(=O)c3ccc4c(c3)OCCO4)cc2s1
818 s | Cc1nnc2ccc(NC3CCCC3)nn12
897 s | CCOC(=O)C1=C(C)N(CC(=O)NC2CCCC2)c2ncnn2C1c1ccc(C)cc1 (stereo unspecified)
810 s | C=CCN1C(=O)COc2ccc(-c3nc(NC(=O)c4ccncc4)sc3C)cc21
590 s | COC[C@@H]1CN(Cc2ccc(OC)cc2OC)C[C@H]1c1ccncc1

RP-LC retention time | Structure (SMILES)
729 s | O=C(c1ccco1)N1c2ccccc2CC1c1nnc(C2CCOCC2)o1 (stereo unspecified)
668 s | CCOc1ccc2nc(NC3=NCN(CCCOC)CN3)nc(C)c2c1
773 s | N#Cc1ccc(C(=O)NCC(=O)N2CCCc3ccccc32)cc1
726 s | N#Cc1ccc(N2C=C(C(=O)N3CCOCC3)S(=O)(=O)c3ccc(F)cc32)cc1
1130 s | CCc1nc2cc(-c3noc(-c4cccc(OC)c4OC)n3)ccc2o1
729 s | COc1ccc(NC(=O)N2C[C@@H]3C[C@H]2C[C@@H]3NC(=O)c2cccs2)cc1F
919 s | O=C(Cc1cccs1)N1CCc2cc(-c3ccno3)ccc21
889 s | CN1C(=O)C(C)(C(=O)Nc2cccc(Cl)c2)Oc2cccnc21 (stereo unspecified)
681 s | Cc1cnc(C(=O)N2CCC(N3C(=O)C4(CCCC4)C3c3scnc3C)CC2)cn1 (stereo unspecified)
703 s | CN1CCCCCC(O)c2cc(C(=O)NCCC3=CCCCC3)ccc21 (stereo unspecified)
701 s | Cc1cc(F)ccc1NC(=O)C1CCCN1S(C)(=O)=O (stereo unspecified)
1010 s | CC1Oc2ccc(-c3csc(NC(=O)CCc4ccccc4)n3)cc2N(C)C1=O (stereo unspecified)
831 s | CC(=O)CC(=O)Nc1ccc(Cl)c(C(F)(F)F)c1
564 s | Cn1cnnc1SCCNC(=O)Cc1csc(Nc2ncccn2)n1
794 s | CC1CCN(C(=O)CCNc2c(-c3ccc(F)cc3)nc3cnccn23)CC1
703 s | CCc1nnc(-c2ccc3ccn(CC(=O)Nc4ccc(NC(C)=O)cc4)c3c2)o1
1010 s | Cc1cc(C)cc(NC(=O)c2cn(C)nc2S(=O)(=O)N2CCSCC2)c1
726 s | CCOC(=O)c1cccc(Nc2c(-c3ccc(C(=O)O)cc3)nc3cnccn23)c1
784 s | Cc1ccc(-c2cc(C(N)=O)c3ccccc3n2)cc1
966 s | CC(C)(C)c1ccc(O)c(NC(=O)c2cn(-c3ccc(S(=O)(=O)N4CCOCC4)cc3)cn2)c1
